Experiment [1] deals with C2C12 Cells. Put plainly: Glucose utilization in cultured C2C12 cells (myotubes). Type of experiment: cell-based, mouse. The following applies: 22 h; for Percent of Control Activity: glucose concentration in medium relative to untreated cells, 5 μM peptide. Here is the method: The effect of the peptides on glucose homeostasis can be assessed using an assay to monitor glucose utilization by cultured cells such as mouse myotubes. Peptide arrays were initially prepared as 5 mM stock in DMSO and diluted to 0.5 mM in H2O; peptides were used at a final concentration of 5 μM (0.1% DMSO). Calculations for peptide concentrations based on approximate molecular weight of 2000 Daltons. C2C12 mouse muscle cell line was purchased from Millipore Sigma (Saint Louis, Mo.). C2C12 cells were seeded in standard medium (DMEM/low glucose (1 g/L)+10% Fetal Bovine Serum+antibiotics) at 7,500 cells/well on 96-well plates and grown to confluence at 37° C. in a humidified atmosphere of 5% CO2/95% air. Three days after plating the medium was removed and with Differentiation Medium (DMEM/low glucose (1 g/L)+2% Horse Serum+antibiotics) added. The cultures were placed at 37° C. in a humidified atmosphere of 5% CO2/95% air for 5 days with partially replacement of medium daily. After 5 days of differentiation, the medium was removed from myotube cultures and replaced with Assay Medium (DMEM/low glucose (1 g/L)+antibiotics). Culture were placed at 37° C. in a humidified atmosphere of 5% CO2/95% air for 5 h. Following the 5 h incubation the medium was removed and fresh Assay Medium containing compounds was added; 5 μM peptide or 1 mM metformin as a potent stimulator of glucose utilization. Cells were incubated for 22 h at 37° C. in a humidified atmosphere of 5% CO2/95% air. Following 22 h incubation, conditioned medium from each well was transferred to a fresh 96-well plate. Glucose concentrations in the medium were determined using a Glucose Assay kit (Abcam; Cambridge, Mass.) according to the manufacturer's instructions; absorbance measured using a Cytation 3 plate reader at 570 nm (BioTek, Winooski, Vt.). Untreated cells were used as reference for basal glucose utilization. Absorbance values were expressed as percent control activity relative to untreated treated cells for 5 μM peptide. The relative standard deviation from plate to plate of untreated control was <10%. […] Data presented are representative values from 2-3 independent experiments with each data point performed in triplicate in each independent experiment.

For experiment [2], the system named is H4-IIE Cells. Put plainly: Glucose production in cultured H4-IIE cells. Type of experiment: cell-based, rat. The following applies: 24 h; for Percent of Control Activity: glucose concentration in medium relative to untreated cells, 5 μM peptide. Here is the method:
The effect of the peptides on glucose homeostasis can be assessed using an assay to monitor glucose production by cultured cells such as rat hepatocytes. Peptide arrays were initially prepared as 5 mM stock in DMSO and diluted to 0.5 mM in H2O; peptides were used at a final concentration of 5 μM (0.1% DMSO). Calculations for peptide concentrations based on approximate molecular weight of 2000 Daltons. H4-IIE rat hepatic cell line was purchased from American Type Culture Collection (Manassas, Va.). H4-IIE cells were seeded in standard medium (DMEM/high glucose+10% Fetal Bovine Serum+antibiotics) at 100,000 cells/well on 96-well plates and allowed to adhere overnight at 37° C. in a humidified atmosphere of 5% CO2/95% air. 24 h after seeding, the medium was removed, cells were rinsed with glucose free DMEM, and the medium replaced with Glucose Production Medium (glucose free DMEM+2 mM sodium pyruvate+10 mM sodium lactate+antibiotics). The cultures were placed at 37° C. in a humidified atmosphere of 5% CO2/95% air overnight. The next morning, the medium was removed and fresh Glucose Production Medium containing compounds was added; 5 uM peptide or 0.5-1 nM insulin as a potent inhibitor of glucose production. Cells were incubated for 24 h at 37° C. in a humidified atmosphere of 5% CO2/95% air. Following 24 h incubation, conditioned medium from each well was transferred to a fresh 96-well plate. Glucose concentrations in the medium were determined using a Glucose Assay kit (Abcam; Cambridge, Mass.) according to the manufacturer's instructions; absorbance measured using a Cytation 3 plate reader at 570 nm (BioTek, Winooski, Vt.). Untreated cells were used as reference for maximal glucose production. Absorbance values were expressed as percent control activity relative to untreated treated cells for 5 μM peptide. The relative standard deviation from plate to plate of untreated control was <25%. […] Glucose levels for 0.5-1 nM insulin treatment were <5% of the untreated control value. Data are presented as representative values from 2-3 independent experiments with each data point performed in triplicate in each independent experiment.

The subject of experiment [3] is 3T3-L1 Mouse Adipocytes. Put plainly: Free fatty acid levels in cultured 3T3-L1 mouse adipocytes (isoproterenol stimulated). Type of experiment: cell-based. The following applies: for Percent of Isoproterenol Control Activity: free fatty acid in medium, 5 μM peptide, 20-22 h pre-incubation then 3 h with 0.1 nM isoproterenol, isoproterenol alone = 100%. Here is the method:
The effect of the peptides on fatty acid metabolism can be assessed using an assay to monitor free fatty acid levels produced by cultured cells such as mouse adipocytes. Peptide arrays were initially prepared as 5 mM stock in DMSO and diluted to 0.5 mM in H2O; peptides were used at a final concentration of 5 μM (0.1% DMSO). Calculations for peptide concentrations based on approximate molecular weight of 2000 Daltons. […] Mouse 3T3-L1 cells purchased from ZenBio (Research Triangle Park, NC) were seeded at 3,000 cells per well in 96-well plates in Pre-adipocyte Medium (Zen-Bio) and grown to confluence at 37° C. in a humidified atmosphere of 5% CO2/95% air. Two days after confluence, cells were placed in Adipocyte Differentiation Medium (Zen-Bio) and cultured for three additional days at 37° C. in a humidified atmosphere of 5% CO2/95% air. The culture medium was then replaced with Adipocyte Maintenance Medium (Zen-Bio) and the cells maintained for an additional 9 days at 37° C. in a humidified atmosphere of 5% CO2/95% air with partial medium replacement every other day. Following 12 days of differentiation, medium was replaced Adipocyte Maintenance Medium without insulin and the cultures placed at 37° C. in a humidified atmosphere of 5% CO2/95% air. On day 13 of differentiation, test peptides were added directly to each well (without replacing the medium) at a final concentration of 5 μM in 0.1% DMSO and incubated for 20-22 hours at 37° C. in a humidified atmosphere of 5% CO2/95% air. […] Cells were incubated for 3 hours in Assay Buffer (Zen-Bio) at 37° C. in a humidified atmosphere of 5% CO2/95% air. Following 3 h incubation, conditioned medium from each well was transferred to a fresh 96-well plate. Free fatty acid concentrations in the medium were determined using a Free Fatty Acid Assay kit (Zen-Bio) according to the manufacturer's instructions; absorbance was measured using a Cytation 3 plate reader at 540 nm (BioTek, Winooski, Vt.). Treatment with 0.1 nM isoproterenol alone was used as the free fatty acid level stimulatory control. Absorbance values were expressed as percent control activity relative to 0.1 nM isoproterenol alone treated cells, 100%. The relative standard deviation of the isoproterenol control was <10%. Insulin at 0.25 nM was used as a potent control for decreasing free fatty acid levels. […] Data presented are representative values from 2 independent experiments with each data point performed in triplicate in each independent experiment.

Bounds are passed on as bounds.

For the molecule 1 (MAAAPSGCPDPTS) [compound 1], the “Percent of Control Activity” value in experiment [1] is 99%; in experiment [2], 128%. Also, the “Percent of Isoproterenol Control Activity” value in experiment [3] was 85%.
Take 2 (MAASVERGFIFLV) [compound 2]: the “Percent of Control Activity” value in experiment [1] is reported as 99%; in experiment [2], 119%. Also, the “Percent of Isoproterenol Control Activity” value in experiment [3] came out at 93%.
Turning to “3 (MAGGFMLMIVVMKLMAPKMEETPA) [compound 3]”, the “Percent of Control Activity” value is on record as 94% in experiment [1] and 118% in experiment [2]. In addition, the “Percent of Isoproterenol Control Activity” value in experiment [3] is reported as 91%.
The like results for 4 (MAHTFPLNKTSR) [compound 4] were, in that order, 101%, 116% and 80%.
The like results for 5 (MAHYSQIPSRPHGWPPSD) [compound 5] were, in that order, 101%, 122% and 98%.
On to 6 (MAIAVVYPKTTIIPPK) [compound 6], for which the “Percent of Control Activity” value in experiment [1] is on record as 100%; in experiment [2], 122%. Further, the “Percent of Isoproterenol Control Activity” value in experiment [3] was 80%.
For the molecule 8 (MAPPLPPLEPTVKLT) [compound 8], the “Percent of Control Activity” value is given as 102% in experiment [1] and 90% in experiment [2]. The “Percent of Isoproterenol Control Activity” value in experiment [3] worked out at 102%.
For 9 (MAQTMPMYPNGSFFPE) [compound 9], the “Percent of Control Activity” value in experiment [1] is listed as 98%; in experiment [2], 90%. Moreover, the “Percent of Isoproterenol Control Activity” value in experiment [3] came out at 98%.
On to “10 (MATKKNFMEKGTRAGDMGSKPHS) [compound 10]”, for which the entries for the “Percent of Control Activity” value in experiment [1] and in experiment [2] were 100% and 87%, respectively. For the same molecule, the “Percent of Isoproterenol Control Activity” value in experiment [3] amounted to 94%.
As for “11 (MAVVDGWVNTWVVPKSASPWKN) [compound 11]”, the entries for the “Percent of Control Activity” value in experiment [1] and in experiment [2] were 96% and 76%, respectively. Besides, in experiment [3], the “Percent of Isoproterenol Control Activity” value stood at 84%.
For the molecule “13 (MCSCVYVYSYCKYMVCSHDKP) [compound 13]”, the “Percent of Control Activity” value in experiment [1] came out at 101%; in experiment [2], 87%. Also, in experiment [3], the “Percent of Isoproterenol Control Activity” value is recorded as 92%.
Consider 14 (MDGCALLAVL) [compound 14], for which the “Percent of Control Activity” value came out at 100% in experiment [1] and 120% in experiment [2]. Moreover, the “Percent of Isoproterenol Control Activity” value in experiment [3] came to 101%.
For 15 (MDMVPQGKDEKL) [compound 15], the “Percent of Control Activity” value was found to be 96% in experiment [1] and 88% in experiment [2]. For the same molecule, the “Percent of Isoproterenol Control Activity” value in experiment [3] turned out to be 90%.
The like results for 16 (MDSWVVGVNEWG) [compound 16] were, in that order, 100%, 89% and 89%.
The like results for “18 (MEAMGLAWNQLWGVRFLPFLS) [compound 18]” were, in that order, 97%, 99% and 102%.
The like results for 19 (METDLDYSGLNSDHVGL) [compound 19] were, in that order, 94%, 99% and 89%.
20 (MFDQENVVTSTESSPS) [compound 20]: the results for the “Percent of Control Activity” value in experiment [1] and in experiment [2] were 102% and 97%, respectively. In addition, in experiment [3], the “Percent of Isoproterenol Control Activity” value is listed as 88%.
The like results for 23 (MFHLRYHNHRYPHRRQSI) [compound 23] were, in that order, 99%, 96% and 94%.
As for `CN(C)C(=N)N=C(N)N` [Metformin, reference compound], the “reduction of extracellular glucose compared to untreated controls” value in experiment [1] (metformin 1 mM, across all plates) is on record as 50-70%.
In the case of insulin [reference compound], the “Glucose levels, % of the untreated control value” in experiment [2] (0.5-1 nM insulin) is listed as less than 5%. Also, the “Free fatty acid levels” value in experiment [3] (insulin 0.25 nM with 0.1 nM isoproterenol, 3 h) is “at or below levels for unstimulated control without isoproterenol”.

The values above are taken from patent US20220332774A1, “THERAPEUTIC MITOCHONDRIAL PEPTIDES” (priority 2019, published 2022).
